Some results are limits rather than exact numbers.

In the first assay the test system is phosphorylated myosin regulatory light chain in neutrophils. The assay can be described thus: Action on amount of phosphorylated myosin regulatory light chain in the cells (Test Example 1). To be noted: Neutrophil, 5 min; human neutrophils, reaction at 25° C. for 5 minutes; read-out: concentration at which the phosphorylation of myosin regulatory light chain is inhibited (IC50). In kind it is cell-based. As to the method:
A volume of 50 to 100 ml of peripheral blood collected from healthy volunteers was centrifuged by using Mono-Poly separator solution (Dainippon Pharmaceutical) to prepare a neutrophil containing fraction. The neutrophils were washed with PBS(−) and resuspended in Hanks' Balanced Salt Solution (HBSS+, Gibco) to prepare a cell suspension (8×10^6/ml). The cell suspension was diluted to 5×10^6/ml, introduced into Eppendorf tubes in a volume of 0.4 ml each, then 0.1 ml each of solutions of a test compound at various concentrations were added to the suspension and allowed to react at 25° C. for 5 minutes. After the reaction, 0.1 ml of trichloroacetic acid solution was added to each reaction, the reaction mixture was gently shaken and centrifuged at 12,000 rpm (4° C., 5 minutes), and the supernatant was removed. Subsequently, 3 μl of 1 M Tris solution was added to the residue, the mixture was further mixed with 50 μl of extraction buffer (8 M urea, 0.02% 2-mercaptoethanol, 0.002% bromophenol blue) and left stand at room temperature for 1 hour. Then, the reaction mixture was loaded on a spin column (0.45 μm, Millipore) to remove the insoluble solids and a sample buffer for SDS polyacrylamide gel electrophoresis (25 mM, Tris-HCl pH 6.8, 2.5% 2-mercaptoethanol, 2% sodium dodecylsulfate, 5% sucrose, 0.002% bromophenol blue as final concentrations) was added, and 10 μl of each sample was subjected to electrophoresis.
The gel after the electrophoresis was blotted on a nitrocellulose membrane (BioRad), blocked with 5% skim milk, and reacted successively with antibodies pLC1 (Sakurada K. et al, Am. J. Physiol., 274, C1563–C1572 (1998)), which specifically recognize the phosphorylated myosin regulatory light chain, and donkey anti-mouse IgG (Chemicon) conjugated with horseradish peroxidase. The band of the phosphorylated myosin regulatory light chain was detected on a film by using ECL Plus Kit (Amersham Pharmacia Biotech). This band was subjected to quantification using a densitometer. By using this value, the inhibitory ratio (%) for phosphorylation of the myosin regulatory light chain was calculated by using the following equation. Phosphorylation inhibition ratio (%)=1−(Band intensity of phosphorylated myosin regulatory light chain with addition of the test compound/Band intensity of phosphorylated myosin regulatory light chain without addition of the test compound)×100
Further, the phosphorylation inhibition ratio was calculated with changing the concentrations of the test compound, and a compound concentration providing an inhibition ratio of 50% was obtained as IC50.
In the case of `Clc1ncc2c3c(cccc13)N(C1CCNCC1)CC2` [Example 61, 6-Chloro-1-(piperidin-4-yl)-2,3-dihydro-1H-1,5-diazaphenalene], the IC50 is no more than 40 µM.

A further assay relates to intraocular pressure. The assay can be described thus: Intraocular pressure reducing action (Test Example 4). The format is in vivo, Japanese white rabbit. Conditions: rabbit, 50 μl of aqueous solution dropped to the left eye. On the procedure:
A Japanese white rabbit having a body weight of about 2 kg was placed in a positioner and naturalized for one week before the experiment. An ophthalmologic local anesthesant (Benoxil) was administered to the left eye, and then intraocular pressure was measured by using a tonometer (Classic 30, Solan). The initial value of the intraocular pressure was measured, then 50 μl of an aqueous solution of a test compound was dropped to the left eye at various concentrations, and the intraocular pressure was measured with passage of time.
Take `Cl.c1cc2c3c(cncc3c1)CCN2C1CCNC1` (stereo not drawn) [Example 1]: the “intraocular pressure reducing action” value was “significant intraocular pressure reducing action”.
`Cl.OCCN1CCC(N2CCc3cnc(O)c4cccc2c34)CC1` [Example 63]: the “intraocular pressure reducing action” value is reported as “significant intraocular pressure reducing action”.
For the molecule `Cl.N[C@H]1CC[C@@H](N2CCc3cncc4cccc2c34)CC1` [Example 31], the “intraocular pressure reducing action” value is reported as “significant intraocular pressure reducing action”.
As for `Cl.Oc1ncc2c3c(cccc13)N(C1CCNCC1)CC2` [Example 62], the “intraocular pressure reducing action” value is reported as “significant intraocular pressure reducing action”.
Still for that read-out and setting: the same measure for `CC(=O)NCCCN[C@H]1CC[C@H](N2CCc3cnc(O)c4cccc2c34)CC1.Cl` [Example 87]: “significant intraocular pressure reducing action”; for `Cl.OCCN1CCC(N2CCc3cncc4cccc2c34)CC1` [Example 12]: “significant intraocular pressure reducing action”; for `Cl.OCCCN1CCC(N2CCc3cncc4cccc2c34)CC1` [Example 13]: “significant intraocular pressure reducing action”.
For `Cl.c1cc2c3c(cncc3c1)CCN2C1CCNCC1` [Example 11], the “intraocular pressure reducing action” value is “significant intraocular pressure reducing action”.
`Cl.OCCCN1CCC(N2CCc3cnc(O)c4cccc2c34)CC1` [Example 64]: the “intraocular pressure reducing action” value is on record as “significant intraocular pressure reducing action”.
Take `CCC(=O)NCCN[C@H]1CC[C@H](N2CCc3cnc(O)c4cccc2c34)CC1.Cl` [Example 83]: the “intraocular pressure reducing action” value is reported as “significant intraocular pressure reducing action”.
In the case of `N[C@H]1CC[C@H](N2CCc3cnc(O)c4cccc2c34)CC1` [Example 77], the “intraocular pressure reducing action” value is recorded as “significant intraocular pressure reducing action”.
`CN1CCC(N2CCc3cncc4cccc2c34)CC1` [Example 52]: the “intraocular pressure reducing action” value is on record as “significant intraocular pressure reducing action”.
Regarding `CCC(=O)NCCCN[C@H]1CC[C@H](N2CCc3cnc(O)c4cccc2c34)CC1.Cl` [Example 88], the “intraocular pressure reducing action” value is “significant intraocular pressure reducing action”.
Same read-out and setting: the same measure for `Cl.OCCN[C@H]1CC[C@H](N2CCc3cnc(O)c4cccc2c34)CC1` [Example 78]: “significant intraocular pressure reducing action”; for `CC(=O)NCCCN1CCC(N2CCc3cncc4cccc2c34)CC1` [Example 47]: “significant intraocular pressure reducing action”.
On the same count and under the same terms, the same measure for `CCCC(=O)NCCN[C@H]1CC[C@H](N2CCc3cnc(O)c4cccc2c34)CC1.Cl` [Example 84]: “significant intraocular pressure reducing action”; for `Cl.N#CCN1CCC(N2CCc3cncc4cccc2c34)CC1` [Example 18]: “significant intraocular pressure reducing action”.
As to `Cl.OCCN[C@H]1CC[C@H](N2CCc3cncc4cccc2c34)CC1` [Example 22], the “intraocular pressure reducing action” value is listed as “significant intraocular pressure reducing action”.
For `Cl.N[C@H]1CC[C@H](N2CCc3cncc4cccc2c34)CC1` [Example 21], the “intraocular pressure reducing action” value was “significant intraocular pressure reducing action”.
Same read-out and setting: for `Cl.NCCN1CCC(N2CCc3cncc4cccc2c34)CC1` [Example 14] the value was “significant intraocular pressure reducing action”.
Consider `CCC(=O)NCCN1CCC(N2CCc3cnc(O)c4cccc2c34)CC1` [Example 68], for which the “intraocular pressure reducing action” value is listed as “significant intraocular pressure reducing action”.
In the case of `CC(=O)NCCN1CCC(N2CCc3cnc(O)c4cccc2c34)CC1` [Example 67], the “intraocular pressure reducing action” value is on record as “significant intraocular pressure reducing action”.
Consider `CC(=O)NCCN[C@H]1CC[C@H](N2CCc3cnc(O)c4cccc2c34)CC1.Cl` [Example 82], for which the “intraocular pressure reducing action” value is on record as “significant intraocular pressure reducing action”.
On the same count and under the same terms, for `Cl.OCCCN[C@H]1CC[C@H](N2CCc3cnc(O)c4cccc2c34)CC1` [Example 79] the value was “significant intraocular pressure reducing action”; for `CCC(=O)NCCCN1CCC(N2CCc3cnc(O)c4cccc2c34)CC1` [Example 73], “significant intraocular pressure reducing action”.
On the same count and under the same terms, for `CC(=O)NCCCN1CCC(N2CCc3cnc(O)c4cccc2c34)CC1` [Example 72] the value was “significant intraocular pressure reducing action”; for `Cl.NCCCN1CCC(N2CCc3cncc4cccc2c34)CC1` [Example 15], “significant intraocular pressure reducing action”; for `CC(C)(C)C(=O)NCCCN1CCC(N2CCc3cnc(O)c4cccc2c34)CC1` [Example 76], “significant intraocular pressure reducing action”.
Consider `CNCCN1CCC(N2CCc3cncc4cccc2c34)CC1` [Example 57], for which the “intraocular pressure reducing action” value is listed as “significant intraocular pressure reducing action”.

The next assay concerns ovalbumin-induced constriction of respiratory tract. Kind of assay: Respiratory tract constriction suppressing action, intravenous administration (Test Example 3). The format is in vivo, Hartley guinea pigs. Conditions: ovalbumin-immunized guinea pigs, administered from cannula in hind leg vein, measured for 15 minutes. As to the method: Four-week old Hartley guinea pigs (male) were immunized by intraperitoneal administration of ovalbumin (Sigma, Grade V) in amounts of 1 mg for each animal on the day on which the experiment was started, 3 mg for each animal after 2 days, and 10 mg for each animal after 4 days. Twelve to fourteen days after the final immunization, the ovalbumin-immunized guinea pigs were anesthetized by intraperitoneal administration of about 40 mg/kg of pentobarbital (Somnopentyl), and the tracheas were taken out. Subsequently, a cannula (SP-110, Natsume) was inserted into each trachea, and one end of the cannula was connected to an artificial respirator (Model-b83, Harvard). The aeration conditions were set at 6 ml per kilogram and 60 times per 1 minute. Further, a cannula for medicament administration (JMS wing needle 23G 3/4) was inserted into a hind leg vein. Myoblock (Organon Technica) was administered in an amount of 0.5 mg/kg from the cannula inserted into the hind leg vein to stop the spontaneous breathing, and after 2 or 3 minutes, 0.3 mg/kg of ovalbumin was administered to induce constriction of respiratory tract. The increase of airway resistance value 2 minutes after the induction (measurement apparatuses: pressure transducer TR-603T, respiratory amplifier AR-601G, and recorder RTA-3100, Nihon Kohden Corp.) was confirmed to be above 80 cm H2O or higher, and then, a solution of a test medicament was administered from the cannula inserted into the hind leg vein, and the airway resistance value was continuously measured for 15 minutes after the administration to determine the effect.
In the case of `Cl.c1cc2c3c(cncc3c1)CCN2C1CCNCC1` [Example 11], the “improvement of constriction of respiratory tract (airway resistance value)” value (“improvement” for short) is “significantly improved the constriction of respiratory tract”.
The same measure, in the same setting: for `Cl.NCCN1CCC(N2CCc3cncc4cccc2c34)CC1` [Example 14] the value was “significantly improved the constriction of respiratory tract”.
Take `Cl.NCCCN1CCC(N2CCc3cncc4cccc2c34)CC1` [Example 15]: the “improvement” value was “significantly improved the constriction of respiratory tract”.

Another assay has the same test system. The assay can be described thus: Respiratory tract constriction suppressing action, administration by inhalation (Test Example 3). In kind it is in vivo, Hartley guinea pigs. To be noted: ovalbumin-immunized guinea pigs, 2 ml solution by inhalation over 5 minutes. As to the method:
Four-week old Hartley guinea pigs (male) were immunized by intraperitoneal administration of ovalbumin (Sigma, Grade V) in amounts of 1 mg for each animal on the day on which the experiment was started, 3 mg for each animal after 2 days, and 10 mg for each animal after 4 days. Further, the respiratory tract constriction suppression action of the test compounds was also evaluated by inhalation. Twelve to fourteen days after the final sensitization, 10 mg/kg of pyrilamine (Sigma), 5 mg/kg of indomethacin (Wako), or 0.1 mg/kg of propranolol (Sigma) was intraperitoneally administered. Then, 30 minutes after the administration, a 0.1% ovalbumin aqueous solution was inhaled by using a pressurization type nebulizer (PARI-IS2) to induce constriction of the respiratory tract. Ten minutes after the induction, 2 ml of a solution of a test compound prepared at various concentrations was filled in the aforementioned nebulizer, and administered by inhalation over 5 minutes. After the administration of pyrilamine and other drugs, airway resistance value was continuously measured to determine effectiveness.
Consider `Cl.c1cc2c3c(cncc3c1)CCN2C1CCNCC1` [Example 11], for which the “improvement” value is “significantly improved the constriction of respiratory tract”.
With `Cl.NCCN1CCC(N2CCc3cncc4cccc2c34)CC1` [Example 14], the “improvement” value was “significantly improved the constriction of respiratory tract”.
Same read-out and setting: the same measure for `Cl.NCCCN1CCC(N2CCc3cncc4cccc2c34)CC1` [Example 15]: “significantly improved the constriction of respiratory tract”.
